Assay results published in patent US4435392A, “2,5-Benzodiazocine derivatives and salts thereof, as well as pharmaceutical agent comprising as effective component at least one of the derivatives and salts” (Sanwa Kagaku Kenkyusho Co. Ltd., priority 1982, dated 1984).

Tests used:
Acute Toxity, mouse = conditions: in vivo
Procedure: (§1) The dd-type 5 weeks male mice of 21 to 26 g and Wister type 5 weeks male rats of 110 to 150 g were classified into groups, each having 10 mice or rats. After having given testing agents to the mice and rats, general conditions, number of deaths in each day and body weight changes have been observed over 7 days. An LD50 value was calculated based on total number of deaths during the 7 days testing time period, in accordance with the Richfield-Wilcoxson Method. The surviving animals were dissected to visually observe internal organs thereof.

Wister type male rats = experiment: Antipyretic Action (rectal body temperature); format: in vivo
Procedure: Wister type male rats of 100 to 140 g were classified into groups, each having 4 to 5 rats. The rats were abstrained from food for 1 day and then each rat was entered in each cage. The body temperature was measured under a constant room temperature through the rectum. This body temperature measurement was carried out in 3 times before a dosage of agents as well as after lapsed 30, 60, 90, 120 and 150 minutes from the dosage.
Judgements have been given based on following 5 measures.

dd-type male mice [1] = experiment: Effect on Sleep (pentobarbital sleeping time); format: in vivo; conditions: pentobarbital 40 mg/kg
Procedure: The dd-type male mice of 16 to 24 g were classified into groups, each having 10 mice. To each mouse, a testing agent was dosed through abdominal cavity and after having lapsed 30 minutes from the dosage, 40 mg/kg of pentobarbital was also dosed through abdominal cavity to measure a time of sleeping period. The sleeping time in question designates a time period, wherein a facing reflex disappears. Judgements were given based on following 7 measures.

dd-type male mice [2] = experiment: Effect on Sleep (pentobarbital sleeping time); format: in vivo; conditions: pentobarbital 40 mg/kg; remark: listed apart in the source
Acute Toxity, rat = conditions: in vivo
Procedure: as §1

dd-male mice [3] = experiment: Analgetic action, Acetic Acid Stretching Method; format: in vivo; conditions: Mus musculus, po, orally given 30 minutes before acetic acid, hydrochloride
Procedure: (ii) Acetic Acid Stretching Method
The dd-male mice of 17 to 23 g were classified into groups, each having 10 mice, and 0.7% aqueous solution of acetic acid was dosed into abdominal cavity for each mouse in a ratio of 10 ml/kg and then a stretching condition was observed over 5 minutes of having lapsed 10 to 15 minutes from the dosage. The test was repeated 4 times to obtain total measured value and an inhibition ratio was measured from number of stretching actions. A judgement has been given in "Yes" or "No" system.
According to the Richfield and Wilcoxson Methods, ED50, LD50 and 95% confidence limit were calculated and compared the same for each testing agents and Control.
Each testing agent and control was orally given 30 minutes before the dosage of the acetic acid in a ratio of 100 mg/10 ml/kg.

dd-male mice [4] = experiment: Analgetic action, Haffner's Method (tail root clamping); format: in vivo; conditions: Mus musculus, ip, abdominal cavity, hydrochloride
Procedure: In accordance with a usual manner, dd-male mice of 14 to 22 g were classified into groups, each having 10 mice, compounds to be tested in various concentrations were given to each mouse and then clamped a tail root of the mouse with use of Koffer clamps in each time period of having lapsed 15, 30, 45 and 60 minutes from the dosage to measure an analgetic action of the compounds by judging as "negative" when the tested mouse cries or looks back.
Further the number of deaths was counted in each 10 mice group after having lapsed 2 hours from dosage of each testing agent into abdominal cavity and then ED50, LD50 and 95% confidence limit were calculated based on the Richfield and Wilcoxson Methods to compare the results obtained on the agents.

[5] = intravenous injectional dosage, 7 days
[6] = ip, in abdominal cavity, 7 days
[7] = in abdominal cavity 50 mg/Kg, hydrochloride
[8] = in abdominal cavity 25 mg/Kg (control)

Q: Which LD50 at 168 h (Acute Toxity, mouse; [5]) does the source give for `COc1ccc(C2NCCN(CCCC(=O)c3ccc(F)cc3)Cc3ccccc32)cc1` (stereo not drawn) [Compound I-f, 5-[3-(p-fluorobenzoyl)propyl]-1,2,3,4,5,6-hexahydro-1-(p-methoxyphenyl)-2,5-benzodiazocine] here?
A: The LD50 at 168 h was 35.9 mg/kg.

Q: What about the LD50 at 168 h (Acute Toxity, mouse; [6]) of the same compound?
A: Its LD50 at 168 h is 109 mg/kg.

Q: And the LD50 at 168 h (Acute Toxity, mouse; oral dosage, 7 days)?
A: Its LD50 at 168 h is 340 mg/kg.

Q: What about the “Antipyretic Action” value (Wister type male rats; [7]) of the same compound?
A: Its value is “++ (showing decrease of 1° to 2 °C and obtaining at least one result of a notifiable difference of P<1%)”.

Q: What about the “Sleep Incrementing Action” value (dd-type male mice [1]; in abdominal cavity 50 mg/Kg) of the same compound?
A: The value was “+++ (sleeping time was extended by 60 minutes or more in comparison with control)”.

Q: And the “Sleep Incrementing Action” value (dd-type male mice [2]; oral dosage 100 mg/Kg)?
A: The value was “+++ (sleeping time was extended by 60 minutes or more in comparison with control)”.

Q: And the LD50 at 168 h (Acute Toxity, rat; [5])?
A: The LD50 at 168 h was 19.8 mg/kg.

Q: What about the LD50 at 168 h (Acute Toxity, rat; oral dosage, 7 days) of the same compound?
A: Its LD50 at 168 h is 2890 mg/kg.

Q: What about the ED50 (dd-male mice [3]) of the same compound?
A: Its ED50 is 11.5 mg/kg.

Q: What about the ED50 (dd-male mice [4]) of the same compound?
A: The ED50 was 30.7 mg/kg.

Q: Which LD50 at 168 h (Acute Toxity, mouse; [5]) does the source give for `c1ccc(C2NCCN(CC3CC3)Cc3ccccc32)cc1` (stereo not drawn) [Compound I-d, 5-cyclopropylmethyl-1,2,3,4,5,6-hexahydro-1-phenyl-2,5-benzodiazocine] here?
A: Its LD50 at 168 h is 18 mg/kg.

Q: What about the LD50 at 168 h (Acute Toxity, mouse; [6]) of the same compound?
A: Its LD50 at 168 h is 51.6 mg/kg.

Q: What about the LD50 at 168 h (Acute Toxity, mouse; oral dosage, 7 days) of the same compound?
A: Its LD50 at 168 h is 215 mg/kg.

Q: What about the “Antipyretic Action” value (Wister type male rats; [7]) of the same compound?
A: The value was “++ (showing decrease of 1° to 2 °C and obtaining at least one result of a notifiable difference of P<1%)”.

Q: And the “Sleep Incrementing Action” value (dd-type male mice [1]; in abdominal cavity 50 mg/Kg)?
A: Its value is “-- (sleeping time was shortened by 30 to 60 minutes in comparison with control)”.

Q: And the “Sleep Incrementing Action” value (dd-type male mice [2]; oral dosage 100 mg/Kg)?
A: Its value is “-- (sleeping time was shortened by 30 to 60 minutes in comparison with control)”.

Q: And the LD50 at 168 h (Acute Toxity, rat; [5])?
A: Its LD50 at 168 h is 17.8 mg/kg.

Q: And the LD50 at 168 h (Acute Toxity, rat; oral dosage, 7 days)?
A: Its LD50 at 168 h is 485 mg/kg.

Q: And the ED50 (dd-male mice [3])?
A: Its ED50 is 13.5 mg/kg.

Q: And the ED50 (dd-male mice [4])?
A: Its ED50 is 17.1 mg/kg.

Q: With `COc1ccc(C2c3ccccc3CN(CCCC(=O)c3ccc(F)cc3)CCN2C)cc1` (stereo not drawn) [Compound I-a, 5-[3-(p-fluorobenzoyl)propyl]-1,2,3,4,5,6-hexahydro-1-(p-methoxyphenyl)-2-methyl-2,5-benzodiazocine] as the compound, how does the LD50 at 168 h (Acute Toxity, mouse; [5]) read?
A: Its LD50 at 168 h is 30.1 mg/kg.

Q: And the LD50 at 168 h (Acute Toxity, mouse; [6])?
A: Its LD50 at 168 h is 179 mg/kg.

Q: What about the LD50 at 168 h (Acute Toxity, mouse; oral dosage, 7 days) of the same compound?
A: Its LD50 at 168 h is 1500 mg/kg.

Q: What about the “Antipyretic Action” value (Wister type male rats; [7]) of the same compound?
A: Its value is “++ (showing decrease of 1° to 2 °C and obtaining at least one result of a notifiable difference of P<1%)”.

Q: And the “Sleep Incrementing Action” value (dd-type male mice [1]; in abdominal cavity 50 mg/Kg)?
A: The value was “++ (sleeping time was extended by 30 to 60 minutes in comparison with control)”.

Q: And the “Sleep Incrementing Action” value (dd-type male mice [2]; oral dosage 100 mg/Kg)?
A: Its value is “+++ (sleeping time was extended by 60 minutes or more in comparison with control)”.

Q: And the LD50 at 168 h (Acute Toxity, rat; [5])?
A: The LD50 at 168 h was 20 mg/kg.

Q: And the LD50 at 168 h (Acute Toxity, rat; oral dosage, 7 days)?
A: The LD50 at 168 h was 3500 mg/kg.

Q: And the ED50 (dd-male mice [3])?
A: Its ED50 is 40.5 mg/kg.

Q: And the ED50 (dd-male mice [4])?
A: Its ED50 is 18.4 mg/kg.

Q: Which LD50 at 168 h (Acute Toxity, mouse; [5]) does the source give for `CN1CCN(CCCC(=O)c2ccc(F)cc2)Cc2ccccc2C1c1ccccc1` (stereo not drawn) [Compound I-c, 5-[3-(p-fluorobenzoyl)propyl]-1,2,3,4,5,6-hexahydro-1-phenyl-2-methyl-2,5-benzodiazocine] here?
A: Its LD50 at 168 h is 29 mg/kg.

Q: What about the LD50 at 168 h (Acute Toxity, mouse; [6]) of the same compound?
A: The LD50 at 168 h was 208 mg/kg.

Q: What about the LD50 at 168 h (Acute Toxity, mouse; oral dosage, 7 days) of the same compound?
A: The LD50 at 168 h was 1700 mg/kg.

Q: And the “Antipyretic Action” value (Wister type male rats; [7])?
A: The value was “++ (showing decrease of 1° to 2 °C and obtaining at least one result of a notifiable difference of P<1%)”.

Q: And the “Sleep Incrementing Action” value (dd-type male mice [1]; in abdominal cavity 50 mg/Kg)?
A: Its value is “+++ (sleeping time was extended by 60 minutes or more in comparison with control)”.

Q: And the “Sleep Incrementing Action” value (dd-type male mice [2]; oral dosage 100 mg/Kg)?
A: The value was “+++ (sleeping time was extended by 60 minutes or more in comparison with control)”.

Q: And the LD50 at 168 h (Acute Toxity, rat; [5])?
A: The LD50 at 168 h was 23.8 mg/kg.

Q: And the LD50 at 168 h (Acute Toxity, rat; oral dosage, 7 days)?
A: The LD50 at 168 h was greater than 4000 mg/kg.

Q: What about the ED50 (dd-male mice [3]) of the same compound?
A: Its ED50 is 5.7 mg/kg.

Q: And the ED50 (dd-male mice [4])?
A: Its ED50 is 44.2 mg/kg.

Q: What does the source list for `CCOC(=O)/C=C/C(=O)Nc1ccc(CCN2CCNC(c3ccccc3)c3ccccc3C2)cc1` (stereo not drawn) [Compound I-e, [5(E)]-ethyl-4-[[4-[2-(1,2,3,4,5,6-hexahydro-1-phenyl-2,5-benzodiazocine)-5-yl]ethyl]phenyl]amino-4-oxo-2-butenoate]?
A: LD50 at 168 h (Acute Toxity, mouse; ip): > 200 mg/kg; LD50 at 168 h (Acute Toxity, mouse; po): 938 mg/kg; Antipyretic Action (Wister type male rats; [7]): ++ (showing decrease of 1° to 2 °C and obtaining at least one result of a notifiable difference of P<1%); Sleep Incrementing Action (dd-type male mice [1]; in abdominal cavity 50 mg/Kg): -- (sleeping time was shortened by 30 to 60 minutes in comparison with control); Sleep Incrementing Action (dd-type male mice [2]; oral dosage 100 mg/Kg): ++ (sleeping time was extended by 30 to 60 minutes in comparison with control); LD50 at 168 h (Acute Toxity, rat; po): > 5000 mg/kg; ED50 (dd-male mice [3]): 61.1 mg/kg; ED50 (dd-male mice [4]): 80.3 mg/kg

Q: What does the source list for `COc1ccc(CCN2CCN(C)C(c3ccc(OC)cc3)c3ccccc3C2)cc1` (stereo not drawn) [Compound I-b, 5-(p-methoxyphenethyl)-1,2,3,4,5,6-hexahydro-1-(p-methoxyphenyl)-2-methyl-2,5-benzodiazocine]?
A: LD50 at 168 h (Acute Toxity, mouse; [5]): 33 mg/kg; LD50 at 168 h (Acute Toxity, mouse; [6]): 124 mg/kg; LD50 at 168 h (Acute Toxity, mouse; oral dosage, 7 days): 623 mg/kg; Antipyretic Action (Wister type male rats; [7]): ++ (showing decrease of 1° to 2 °C and obtaining at least one result of a notifiable difference of P<1%); Sleep Incrementing Action (dd-type male mice [1]; in abdominal cavity 50 mg/Kg): +++ (sleeping time was extended by 60 minutes or more in comparison with control); Sleep Incrementing Action (dd-type male mice [2]; oral dosage 100 mg/Kg): +++ (sleeping time was extended by 60 minutes or more in comparison with control); LD50 at 168 h (Acute Toxity, rat; [5]): 20.7 mg/kg; LD50 at 168 h (Acute Toxity, rat; oral dosage, 7 days): 4090 mg/kg; ED50 (dd-male mice [3]): 48.5 mg/kg; ED50 (dd-male mice [4]): 26.2 mg/kg

Q: For `CN1CCOC(c2ccccc2)c2ccccc2C1` (stereo not drawn) [Nefopam, reference compound], which LD50 at 168 h (Acute Toxity, mouse; [5]) is on record?
A: Its LD50 at 168 h is 36.8 mg/kg.

Q: What about the LD50 at 168 h (Acute Toxity, mouse; [6]) of the same compound?
A: The LD50 at 168 h was 72.4 mg/kg.

Q: What about the LD50 at 168 h (Acute Toxity, mouse; oral dosage, 7 days) of the same compound?
A: The LD50 at 168 h was 356 mg/kg.

Q: What about the “Antipyretic Action” value (Wister type male rats; [8]) of the same compound?
A: The value was “++ (showing decrease of 1° to 2 °C and obtaining at least one result of a notifiable difference of P<1%)”.

Q: What about the “Sleep Incrementing Action” value (dd-type male mice [1]; [8]) of the same compound?
A: Its value is “-- (sleeping time was shortened by 30 to 60 minutes in comparison with control)”.

Q: What about the “Sleep Incrementing Action” value (dd-type male mice [2]; oral dosage 50 mg/Kg (control)) of the same compound?
A: Its value is “-- (sleeping time was shortened by 30 to 60 minutes in comparison with control)”.

Q: And the LD50 at 168 h (Acute Toxity, rat; [5])?
A: The LD50 at 168 h was 18 mg/kg.

Q: And the LD50 at 168 h (Acute Toxity, rat; oral dosage, 7 days)?
A: The LD50 at 168 h was 595 mg/kg.
